Legend:
Test in all cases: LDH Activity Assay
Settings in all cases: pH 7.4
[1] = biological target: L-lactate dehydrogenase B chain (Mus musculus, UniProt P16125)
Procedure: (§1) Lactate dehydrogenase activity was determined by recording the absorbance change at 340 nm produced by the oxidation of NADH. Assays were performed at 37°C. The reagent mixture contained 0.115 mM NADH, 50 mM sodium phosphate buffer, pH 7.4, sodium pyruvate (0.31 mM for LDH-C4 and LDH-B4 and 1.25 mM for LDH-A4) and the enzyme preparation, diluted with phosphate buffer, pH 7.4, to provide a ΔE340 of 0.06-0.07 per minute when the activity was assayed in a 1-cm light path. For determination of dissociation constants, the isozymes, the inhibitors (oxamate or oxamate derivatives) and the coenzyme were incubated with the buffer used in the assay for 10 min at 37°C before adding the substrate.

[2] = biological target: L-lactate dehydrogenase A chain (Mus musculus, UniProt P06151)
Procedure: as §1

[3] = biological target: L-lactate dehydrogenase C chain (Mus musculus, UniProt P00342)
Procedure: as §1

Sequence of L-lactate dehydrogenase C chain (P00342 whole entry): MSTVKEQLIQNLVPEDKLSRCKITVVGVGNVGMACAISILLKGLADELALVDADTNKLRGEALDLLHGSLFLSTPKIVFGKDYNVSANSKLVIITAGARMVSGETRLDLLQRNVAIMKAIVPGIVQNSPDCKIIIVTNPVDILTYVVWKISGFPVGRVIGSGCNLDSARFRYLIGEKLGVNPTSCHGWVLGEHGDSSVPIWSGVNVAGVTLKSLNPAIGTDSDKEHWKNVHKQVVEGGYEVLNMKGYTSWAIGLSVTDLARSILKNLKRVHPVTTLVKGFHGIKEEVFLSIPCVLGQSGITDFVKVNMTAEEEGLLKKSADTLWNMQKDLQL
Sequence of L-lactate dehydrogenase B chain (P16125 whole entry): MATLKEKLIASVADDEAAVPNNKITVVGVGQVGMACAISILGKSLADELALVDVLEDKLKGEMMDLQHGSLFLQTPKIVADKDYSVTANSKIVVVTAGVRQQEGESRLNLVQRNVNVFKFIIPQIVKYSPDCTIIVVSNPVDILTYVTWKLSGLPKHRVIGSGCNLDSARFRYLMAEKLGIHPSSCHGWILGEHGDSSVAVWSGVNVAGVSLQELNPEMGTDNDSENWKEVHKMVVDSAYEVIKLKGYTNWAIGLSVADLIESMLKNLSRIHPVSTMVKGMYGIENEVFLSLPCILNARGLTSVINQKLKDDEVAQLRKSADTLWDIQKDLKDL

`CCCCNC(=O)C(=O)O` [N-Butyl oxamate] gave a Ki [1] of 7000 µM, a Ki [2] of 9100 µM and a Ki [3] of 750 µM.
With `CCNC(=O)C(=O)O` [N-Ethyl oxamate] the Ki [1] was 35 µM, the Ki [2] was 140 µM and the Ki [3] was 2 µM.
For `CCC(C)NC(=O)C(=O)O` (stereo not drawn) [N-sec-Butyl oxamate], the Ki [1] was 14500 µM, the Ki [2] was 12500 µM and the Ki [3] was 400 µM.
Work on `CC(C)CNC(=O)C(=O)O` [N-Isobutyl oxamate] yielded a Ki [1] of 7000 µM, a Ki [2] of 6000 µM and a Ki [3] of 2000 µM.
In the case of `NC(=O)C(=O)O` [carbamoylformic acid], the Ki [1] is reported as 60 µM, the Ki [2] is reported as 80 µM and the Ki [3] is reported as 30 µM.
With `CCCNC(=O)C(=O)O` [N-Propyl oxamate] the Ki [1] was 887 µM, the Ki [2] was 1750 µM and the Ki [3] was 12 µM.

Reference: BindingDB's records for doi:10.3109/14756366.2011.566221 (Instituto Politécnico Nacional, 2011)
